Laboratory results taken from US20070197591A1, “USE OF PALIPERIDONE FOR THE TREATMENT OF A MENTAL DISORDER IN A PSYCHIATRIC PATIENT WITH REDUCED HEPATIC FUNCTION” (priority 2005, published 2007).
Read-outs that look alike come from different tables or passages of the source.

Assay: Single-dose pharmacokinetics of IR paliperidone in subjects with moderate hepatic impairment vs normal hepatic function
Type: in vivo, human
Settings: for CL renal / AUC(0-inf) / half-life / Tmax / Cmax: both sexes, human, 1 mg; for CL renal: plasma and urine; for AUC(0-inf) / half-life / Tmax / Cmax: plasma; for half-life: read-out: t1/2 (terminal half-life) (converted); for Tmax: read-out: tmax, median (range); for Ae, % dose: urine
From the text: Objectives: The primary objective of this study was to investigate the single-dose pharmacokinetics of immediate-release (IR) paliperidone, after oral administration, in subjects having moderate hepatic impairment (“hepatically-impaired subjects”) compared with subjects having normal hepatic function (“healthy subjects”). The secondary objective was to document the plasma protein binding and disposition of the enantiomers of paliperidone. In addition, the tolerability and safety profile of IR paliperidone was compared between hepatically impaired subjects and healthy subjects. Methodology: This was a single-dose, parallel-group, open-label, single-center, Phase I study of IR paliperidone in subjects having either normal or moderately impaired hepatic function. The groups, consisting of 10 subjects each, were demographically matched with respect to age, weight, sex, and ethnicity. The study consisted of a screening period of up to 3 weeks and an open-label, single-dose treatment period (Days 1 through 5). On Day 1, a single dose of 1 mg IR paliperidone oral solution was administered after a fast of at least 10 hours; subjects continued to fast for 4 hours following study drug administration. The 96-hour follow-up consisted of serial sample collection of blood and urine for pharmacokinetic analysis and safety and tolerability assessments. Subjects remained confined to the study site through the 72-hour pharmacokinetics sampling, and consumed standard institutional meals while in the study site. Subjects were released after the 72-hour sampling, then returned to the study site on Day 5 before the 96-hour pharmacokinetics sampling: end-of-study procedures were performed immediately hereafter. A blood sample for DNA isolation was collected to allow for genetic analysis as necessary. Diagnosis and Main Criteria for Inclusion: The study was conducted in men and women, aged 18 through 75 years, inclusive. One group of subjects had moderate hepatic impairment, with stable hepatic disease, a total Child-Pugh score of between 7 and 9, inclusive, and blood pressure that was controlled and stable on antihypertensive agents; the other group had normal hepatic function. Test Product, Dose and Mode of Administration, Batch No: 1 mg IR paliperidone (R076477) oral solution; batch 04C29/[…]. Criteria for Evaluation: Pharmacokinetics: Plasma and urine concentrations of the paliperidone enantiomers (+) R078543 and (-) R078544 were determined using an LC-MS/MS method. Concentrations of paliperidone were calculated as the sum of the enantiomer concentrations. In addition, serum and urine concentrations of creatinine were determined for the calculation of CLCR. The protein binding and unbound fraction was determined for the 2 paliperidone enantiomers. The unbound fraction for paliperidone was calculated. Based on the actual pharmacokinetic blood sampling times and actual urine collection periods, the following plasma and urine pharmacokinetic parameters were determined for paliperidone and its enantiomers: Cmax, tmax, tlast, AUClast, λZ, t1/2, AUC∞, % AUC∞,ex, CL/F, AUC∞+/- ratio, Ct+/- ratio per time point, unbound AUC∞, unbound CL/F or unbound CL (if relevant), Ae (per collection interval and overall), Ae,% dose, Excr. Rate, […], and CLNR. Pharmacokinetics: Descriptive statistics were evaluated for the plasma concentrations at each sampling time, and for all pharmacokinetic parameters of paliperidone and its enantiomers for each hepatic function group Graphical exploration of the paliperidone and enantiomer plasma concentrations and urine data, and the derived pharmacokinetic parameters, was performed. In addition, the enantiomer disposition was compared between the groups. Log-transformed PK parameters were fit to a general linear model with hepatic function grip as fixed effect.

[1] = Hepatically-Impaired Subjects, Total
[2] = Hepatically-Impaired Subjects, Unbound
[3] = oral, Healthy Subjects, Unbound
[4] = oral, Hepatically-Impaired Subjects, Total
[5] = oral, Hepatically-Impaired Subjects, Unbound

In the case of `Cc1nc2n(c(=O)c1CCN1CCC(c3noc4cc(F)ccc34)CC1)CCCC2O` (centres unmarked) [Paliperidone, paliperidone], the CL/F (Healthy Subjects, Total) is reported as 106 ± 34.9 mL/min, the CLNR (Healthy Subjects, Total) is reported as 54.4 ± 23.7 mL/min and the Vdz (Healthy Subjects, Total) is reported as 211 ± 59.6 L. The CL/F (Healthy Subjects, Unbound) was 370 ± 67.1 mL/min, the CLNR (Healthy Subjects, Unbound) was 188 ± 56.8 mL/min and the Vdz (Healthy Subjects, Unbound) was 748 ± 144 L. The CL/F [1] was 143 ± 43.4 mL/min, the CLNR [1] was 75.1 ± 16.2 mL/min and the Vdz [1] was 311 ± 65.2 L. The CL/F [2] was 386 ± 99.3 mL/min, the CLNR [2] was 205 ± 30.7 mL/min and the Vdz [2] was 857 ± 146 L. For the same compound, the “clearance and volume of distribution between the groups” value (based on unbound concentrations) was “comparable”, the “Active renal clearance as share of the renal clearance” value (both groups) was “approximately 45%” and the “median time to reach maximum plasma concentration” value (both groups) was “around 1 hour”. For the same compound, the CL renal (oral, Healthy Subjects, Total, read-out: CLR) was 51.2 ± 13.4 mL/min, the CL renal (oral, Hepatically-Impaired Subjects, Total, read-out: CLR) was 67.4 ± 34 mL/min and the CL renal (oral, healthy subjects (second value of '67.4 vs. 51.2'), read-out: Renal clearance) was 51.2 mL/min. It also gave a CL renal (oral, hepatically-impaired subjects (first value of '67.4 vs. 51.2'), read-out: Renal clearance) of 67.4 mL/min, an AUC(0-inf) (oral, Healthy Subjects, Total) of 176 ± 64.4 ng·h/mL and a half-life (oral, Healthy Subjects, Total) of 23.6 h. The Tmax (oral, Healthy Subjects, Total) was 1 h, the AUC(0-inf) [3] was 45.8 ± 8.72 ng·h/mL and the Cmax [3] was 1.81 ± 0.292 ng/mL. For the same compound, the Tmax [3] was 1.25 h, the AUC(0-inf) [4] was 128 ± 42.5 ng·h/mL and the Cmax [4] was 4.57 ± 1.05 ng/mL. For the same compound, the half-life [4] was 26.5 h, the Tmax [4] was 1.25 h and the AUC(0-inf) [5] was 45.7 ± 12.6 ng·h/mL. For the same compound, the Cmax [5] was 1.59 ± 0.318 ng/mL, the Tmax [5] was 1.25 h and the Cmax (po, Healthy Subjects, Total, 1 mg IR oral solution) was 7.14 ± 2.28 ng/mL. For the same compound, the “dose excreted unchanged into urine” value (did not differ between the groups) was “Approximately 50%”, the “CL/F higher in hepatically-impaired compared with healthy subjects” value (total) was “about 35%” and the “volume of distribution higher in hepatically-impaired compared with healthy subjects” value (total Paliperidone) was 47%. For the same compound, the “exposure (Cmax, AUC∞) between hepatic function groups after correction for unbound fraction” value (unbound) was “comparable”, the “AUC∞ lower in hepatically-impaired compared with healthy subjects” value (unbound fraction) was “approximately 5%” and the “Cmax lower in hepatically-impaired compared with healthy subjects” value (unbound fraction) was “approximately 12%”. For the same compound, the “Ae, % dose” value (Healthy Subjects) was 50.1 ± 7.94 % dose and the “Ae, % dose” value (Hepatically-Impaired Subjects) was 44.7 ± 10.62 % dose.
